The source of these data is PMC5464911, “SEL120-34A is a novel CDK8 inhibitor active in AML cells with high levels of serine phosphorylation of STAT1 and STAT5 transactivation domains” (Oncotarget, 2017).

This series relates to MV4-11 tumors. Briefly: MV4-11 AML xenograft. The format is in vivo, SCID mice. The protocol: Figure 9 SEL120-34A inhibits growth of AML tumors in a dose- dependent manner (A) Volume kinetic of KG-1 tumors and (B) MV4-11 tumors grown subcutaneously in SCID mice, treated orally with vehicle (water) or indicated doses of SEL120-34A once every day. Changes in animals’ body weights are shown in the inset; n=8, SD is shown. (C) Levels of total STAT1, STAT3 and STAT5 and phosphorylated […], Y701, STAT3 S727, Y705, STAT5 726, Y694 were analyzed in KG-1 tumors from control (vehicle) and SEL120-34A treated animals at day 23. (D) Levels of total on STAT5 and phosphorylated STAT5 S726, Y694, MCL-1, PARP and Cleaved PARP, total RNAPII and phosphorylated RNAPII CTD S2 were analyzed in MV4-11 tumors from control (vehicle) and SEL120-34A treated animals at day 17.
All animals were handled in strict accordance with good animal practice as defined by the relevant national and local animal welfare bodies. Animals, SCID/beige C.B17 female mice were provided by Harlan Laboratories or Charles River Laboratories, and were maintained in pathogen free conditions.
Mice were inoculated subcutaneously (sc) above the groin on the right hind limb with 4×10^6 MV-4-11 or KG-1 leukemia cells, 5×10^6 Colo-205 CRC cells in a 0.1 ml mixture (3:1, v:v) of PBS and Matrigel (BD Biosciences, Growth Factor Reduced, Phenol Red-free; #356231). Once tumors reached a mean volume of approximately 100 mm^3 for tumor growth assessment or 250mm^3 for pharmacodynamics assessment, the mice were then randomly divided into uniform groups followed by compound or vehicle administration. Prior to use, the test compound was dissolved freshly in water at indicated doses and administered per os (PO) using cannula in a volume of 10 μl per 1 g of body weight. After the last administration, mice were subjected to anesthesia for blood collection, and sacrificed for tumor collection.

As to `Cc1c(Br)c(Br)c2c3c1nc(N1CCNCC1)n3CCC2` [SEL120-34A], the body weight entry (MV4-11 xenograft, oral once every day) is reported as “without appreciable loss in body weight”. Also, where the note is “oral once every day, day 17”, the “MCL-1 in MV4-11 tumors” value was “repression”; the “STAT5 S726 and total STAT5 levels in MV4-11 tumors” value is “repressed”; the “phosphorylation levels of RNAPII CTD S2 in MV4-11 tumors” value is given as “without any appreciable reduction”. Besides, the “volume of MV4-11 tumors” value (oral, once every day) is “reduced volume”.
